# Calls of active or inactive are those of the source.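 How the source made its calls: active means chemicals rated mutagenic or weakly mutagenic in the Salmonella bacterial test by one literature review, or positive overall by another; inconclusive means no clear call, values can overlap the other calls; inactive means the rest.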
# Test system: Salmonella typhimurium Ames mutagenicity, literature compiled
# Assay: DSSTox (CPDBAS) Carcinogenic Potency Database Salmonella Mutagenicity
# Outline: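 Calls derive from published evaluations rather than new testing; overall "positive" in EPA Gene-Tox, or "mutagenic"/"weakly mutagenic" per Zeiger, counts as active.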
row,SMILES,outcome
1,F,inactive; active
2,Cc1cccc(C)c1N,active
3,CSCCC(N)C(=O)O (centres undefined),inactive; active
4,C=C(C)C#N,inactive; active
5,[Cl-].[Cl-].[Hg+2],inactive; active
6,CCCCCc1cc(O)c2c(c1)OC(C)(C)[C@@H]1CCC(C)=C[C@@H]21,inactive; active
7,O=C(O)Cc1c[nH]c2ccccc12,inactive
8,CCN(Cc1cccc(S(=O)(=O)[O-])c1)c1ccc(C(=C2C=CC(=[N+](C)C)C=C2)c2ccc(N(CC)Cc3cccc(S(=O)(=O)O)c3)cc2)cc1,active
9,Cc1c(N(C)C)c(=O)n(-c2ccccc2)n1C,active
10,C=CCOC(=O)c1ccccc1C(=O)OCC=C,inactive; active
11,CC(N)=O,inactive; active
12,COc1ccc(C(Cl)=C(c2ccc(OC)cc2)c2ccc(OC)cc2)cc1,inactive
13,O=NN1CCC(=O)NC1=O,active; inactive
14,CCSCC[C@H](N)C(=O)O,inactive
15,CCC(O)OC(O)CC (centres undefined),inactive; active
16,Cc1c(N)nc(C)c2c1[nH]c1ccccc12,active
17,CCCCOC(=O)c1ccccc1C(=O)OCc1ccccc1,inactive
18,O=C1NC(c2ccc([N+](=O)[O-])s2)Nc2ccccc21 (centres undefined),active
19,C=CC#N,active
20,CC(C)CCC[C@@H](C)[C@H]1CC[C@H]2[C@@H]3CC=C4C[C@@H](OC(=O)Cc5ccc(N(CCCl)CCCl)cc5)CC[C@]4(C)[C@H]3CC[C@]12C,inactive; active

row,SMILES,outcome
1,COc1cc2c(c3oc(=O)c4c(c13)CC[C@H]4O)[C@@H]1C=CO[C@H]1O2,active
2,ClC(Cl)C(Cl)Cl,inactive; active
3,OCCBr,active
4,Nc1ccc(S(=O)(=O)c2ccc(N)cc2)cc1,inactive; active
5,Nc1cc(Cl)cc(C(=O)O)c1Cl,active
6,CC(=O)NNc1ccccc1,active
7,Nc1ncn([C@@H]2O[C@H](CO)[C@@H](O)[C@H]2O)c(=O)n1,active
8,C1CNCCN1,inactive
9,O=S(=O)(O)c1c(N=Nc2c(O)ccc3ccccc23)ccc2ccccc12,inactive; active
10,CN(C)CCN(Cc1cccs1)c1ccccn1,inactive; active
11,C=CCOC(=O)CC(C)C,inactive; active
12,CCOP(=S)(OCC)Oc1ccc([N+](=O)[O-])cc1,inactive
13,COc1c2occc2cc2ccc(=O)oc12,active
14,Cc1ncc[nH]1,inactive
15,C/C=C/c1ccc2c(c1)OCO2,inactive; active
16,CCn1c2ccccc2c2cc(N)ccc21,active
17,CS(=O)(=O)OCCCCOS(C)(=O)=O,active
18,O=S(=O)(O)c1ccc(N=Nc2c(O)ccc3cc(S(=O)(=O)O)ccc23)cc1,inactive; active
19,CCCCOCCO,inactive; active
20,CCCCCCCCCCCCN(C)N=O,active

row,SMILES,outcome
1,C=CC1CC=CCC1 (centres undefined),inactive
2,Cc1cccc(N=Nc2ccc(N(C)C)cc2)c1,active; inactive
3,CCN(C)N=O,active
4,C=CCN(CC=C)N=O,active
5,Cc1ncc([N+](=O)[O-])n1C,active
6,O=C(O)COc1cc(Cl)c(Cl)cc1Cl,inactive; active
7,CC1CN(N=O)CC(C)N1N=O (centres undefined),active
8,C=C(Cl)Cl,active; inactive
9,CC(=O)NCc1nc(-c2ccc([N+](=O)[O-])o2)no1,active
10,O=P(OCCCl)(OCCCl)OCCCl,inactive
11,O=C(O)[C@@H]1[C@H](C(=O)O)[C@@]2(Cl)C(Cl)=C(Cl)[C@]1(Cl)C2(Cl)Cl,inactive; active
12,CCCC(Cl)CCC(Cl)CCC(Cl)CCC(Cl)CCC(Cl)CCC(Cl)CCC(C)Cl (centres undefined),inactive
13,c1ccc(-c2ccccc2)cc1,inactive
14,C=C(C)C,inactive
15,O=C/C(Cl)=C(/Cl)C(=O)O,active
16,ClCc1ccccn1,active
17,OCC1CO1 (centres undefined),active; inactive
18,C=CCc1ccc(OC)c(OC)c1,inactive; active
19,Cc1ccccc1S(N)(=O)=O,inactive
